Literature values, collected in patent publication US8932634B2, “Hydrocolloid carrier beads with inert filler material” (Yissum Research Development Company of the Hebrew …, priority 2006, dated 2015).
Counter-ions that a name gives are not always drawn.

COc1ccc([C@@H]2Sc3ccccc3N(CCN(C)C)C(=O)[C@@H]2OC(C)=O)cc1 [Diltiazem hydrochloride]
solubility in water: high
